Measurements as given in patent US20230024108A1, “ADENOSINE A2A RECEPTOR ANTAGONISTS” (Teon Therapeutics, Inc., priority 2019, published 2023).

Columns and labels:
[1] = tested on: phospho-CREB (pCREB); assay: Human whole blood phospho-CREB (pCREB) assay / modulation of pCREB in human immune cells; type: cell-based; settings: agonist (NECA or CGS-21680)-stimulated human blood cells
Procedure: Fresh human blood samples are derived from healthy volunteers and processed in heparin tubes. 67.5 ul of whole blood is aliquoted to each well in a 96-well plate and incubated at 37° C. for 30 min. Testing compounds are diluted with DMSO to make 8-point 3-fold serial dilution and 3.5 ul (20×) is added to each well. Cells are incubated with the compounds at 37° C. for 30 min. NECA (5 uM) is then added to each well and cells are incubated for 30 min at 37° C. Following the stimulation, cells are transferred to a 96-well deep well plates and fixed with 1 ml/well of lyse/fix buffer (1×) (BD Biosciences #558049) with vigorous shake at 37° C. for 10 min. Cells are centrifuged at 600 g for 6 min and washed twice with PBS, followed by addition of 800 ul/well Perm buffer III (BD Biosciences #558050). Cells are then pelleted at 600 g for 6 min, washed with FACS buffer (PBS+0.2% BSA+1 mM EDTA) and stained for 40 min at room temperature in the dark with an antibody cocktail containing PE mouse anti-human CD3 (BD Biosciences #555333, 1 ul/well), FITC mouse anti-human CD4 (BD Biosciences #5555346, 1 ul/well), PerCP-Cy™5.5 mouse anti-human CD8 (BD Biosciences #565310, 1 ul/well) and phospho-CREB (Ser133) (87G3) Rabbit mAb (Alexa Fluor® 647 Conjugate, CST #14001, 0.5 ul/well). Cells are then washed twice with FACS buffer and acquired on a flow cytometer (Sony Cell Sorter SH800). Data were analyzed using FlowJo version 9. The level of CREB phosphorylation from unstimulated cells (Low control: LC) and NECA-stimulated cells (High control: HC) are determined as mean fluorescent intensity (MFI) in stimulated condition/mean fluorescent intensity in unstimulated condition. % Inhibition is calculated as (MFI of HC-MFI of assay well)/(MFI of HC-MFI of LC)×100%. Data are analyzed and IC50s calculated using GraphPad Prism 5 and the model “log(inhibitor) vs. response—Variable slope”.
The A2A receptor is known to mediate CREB phosphorylation.
Venous blood from healthy volunteers, all of whom signed an informed consent approved by the Ethics Committee (FOR—UIC-BV-050-01-01 ICF HBS HD Version 5.0), was obtained via ImmuneHealth (Centre Hospitalier Universitaire Tivoli, La Louviere,
15 Belgium). Peripheral blood cells were treated with A2AR agonists CGS-21680 or NECA (Sigma-Aldrich, Diegem, Belgium), and a serial dilution of compounds disclosed herein (all used stock solutions at 10 mM in DMSO). All dilutions were prepared in RPMI1640 medium (with UltraGlutamine; Lonza, Venders, Belgium), and cells were incubated with compounds in a 37° C. humidified tissue culture incubator with 5% CO2.
After stimulation, cells were fixed and permeabilized, followed by intracellular staining using mouse anti-human pCREB antibodies (Clone J151-21; BD Biosciences) at room temperature. Data were acquired using an LSRFortessa flow cytometer (BD Biosciences) and analyzed using FlowJo software (FlowJo, LLC, Ashland, Oregon).

[2] = biological target: T1, A1AdoR (Homo sapiens, UniProt P30542); assay: Adenosine receptor binding assay, A1 ([3H]-DPCPX); settings: ratio A1 vs A2A binding
T1 construct: purchased PerkinElmer ES-010-M400UA
T1 sequence (P30542 1-326): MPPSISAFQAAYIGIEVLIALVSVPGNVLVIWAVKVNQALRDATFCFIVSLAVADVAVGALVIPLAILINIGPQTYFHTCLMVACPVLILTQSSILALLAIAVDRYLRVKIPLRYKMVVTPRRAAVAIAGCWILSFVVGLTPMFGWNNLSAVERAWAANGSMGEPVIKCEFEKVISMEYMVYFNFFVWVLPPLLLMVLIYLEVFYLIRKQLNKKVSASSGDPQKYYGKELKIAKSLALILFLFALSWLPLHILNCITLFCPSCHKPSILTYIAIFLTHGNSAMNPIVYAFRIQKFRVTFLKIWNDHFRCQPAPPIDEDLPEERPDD
How it was run: (§1)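 Filtration binding on membranes: A2A in HEK-293 with 6 nM [3H]-CGS-21680, Tris pH 7.4, 2 h; A2B in HEK-293 with 8 nM [3H]-DPCPX, HEPES pH 7.0, 1 h; A1 in CHO-K1 with 1 nM [3H]-DPCPX, HEPES pH 7.4, 1 h; room temperature. 8-point dilutions; IC50 converted to Ki (Cheng–Prusoff).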

[3] = biological target: T2, human A2B AdoR (Homo sapiens, UniProt P29275); assay: Adenosine receptor binding assay, A2B ([3H]-DPCPX); settings: ratio A2B vs A2A binding
T2 construct: purchased PerkinElmer ES-013-M400UA
T2 sequence (P29275 1-332): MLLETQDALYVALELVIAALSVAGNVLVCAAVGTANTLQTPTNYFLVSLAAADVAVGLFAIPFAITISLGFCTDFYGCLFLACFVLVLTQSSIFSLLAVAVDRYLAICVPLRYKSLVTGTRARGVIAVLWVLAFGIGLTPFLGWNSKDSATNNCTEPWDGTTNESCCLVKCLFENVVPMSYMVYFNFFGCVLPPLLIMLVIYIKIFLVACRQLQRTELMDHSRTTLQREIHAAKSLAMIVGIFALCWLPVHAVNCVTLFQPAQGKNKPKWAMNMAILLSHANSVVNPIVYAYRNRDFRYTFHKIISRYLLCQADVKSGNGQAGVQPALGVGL
Procedure: Membranes prepared from CHO-K1 cells stably expressing Human AiAdoR (ES-010-M400UA), HEK-293 cells stably expressing human A2A AdoR (RBHA2AM400UA), HEK-293 cells stably expressing human A2B AdoR (ES-013-M400UA) and CHO-K1 cells stably expressing Human A3 AdoR (ES-012-M400UA) were purchased from PerkinElmer (Waltham, Mass., USA) and stored at −80° C. until use. Binding assays are performed using the radioligands. The final concentrations are as follows: [3H]-DPCPX (PerkinElmer, NET974001MC) at 1 nM for A1AdoR; [^3H]-CGS-21680 (PerkinElmer, NET1021250UC) at 6 nM for A2AAdoR, [3H]-DPCPX (PerkinElmer, NET974001MC) at 8 nM for A2BAdoR; [^3H]-HEMADO (ARC, Cat: ART1456) at 1 nM for A3AdoR. Testing compounds are diluted with DMSO to make 8-point 4-fold serial dilution. Nonspecific binding (Low control: LC) and total binding (High control: HC) are determined in the presence or absence of saturated cold ligand. Specific binding is calculated by subtracting nonspecific binding from total binding. All assays are performed in a final volume of 200 μl containing 1 μl of the test compound in DMSO, 100 μl of membrane preparation, and 99 μl of the radioligand in assay buffer (A1AdoR: 25 mM HEPES pH 7.4, 5 mM MgCl2, 1 mM CaCl2), 100 mM NaCl; A2AAdoR: 50 mM Tris HCl pH 7.4, 10 mM MgCl2, 1 mM EDTA; A2BAdoR: 50 mM HEPES pH 7.0, 5 mM MgCl2, 1 mM EDTA; A3AdoR: 25 HEPES pH 7.4, 10 mM MgCl2, 1 mM CaCl2), 0.5% BSA). The incubation is performed at room temperature with shaking at 300 rpm for 1 hour for A1AdoR, A2BAdoR and A3AdoR and 2 hours for A2AAdoR. After the incubation, the assay mixture is filtered through 96 GF/C filter plates (Perkin Elmer #6005174) using Perkin Elmer Filtermate Harvester, and then washed four times with ice-cold washing buffer (A1AdoR: 25 mM HEPES pH 7.4, 5 mM MgCl2, 1 mM CaCl2), 100 mM NaCl; A2AAdoR: 50 mM Tris HCl pH 7.4, 154 mM NaCl; A2BAdoR: 50 mM HEPES pH 6.5, 5 mM MgCl2, 1 mM EDTA, 0.2% BSA; A3AdoR: 50 mM Tris HCl pH 7.4). The filters are dried for 1 hour at 50° C. and [^3H] trapped on filter counted for radioactivity in Perkin Elmer Microscint 20 cocktail (#6013329) using Perkin Elmer MicroBeta2 Reader. The results are expressed as a percent inhibition of the control radioligand specific binding calculated using the following equation: % Inhibition=(1−(Assay well-Average_LC)/(Average_HC−Average_LC))×100%. Data are analyzed and IC50 is calculated using GraphPad Prism 5 and the model “log(inhibitor) vs. response—Variable slope”. The binding affinity of the compounds is determined by using the Cheng and Prusoff equation Ki=IC50/(1+[radioligand]/Kd).

[4] = biological target: T3, human A2A AdoR (Homo sapiens, UniProt P29274); assay: Adenosine receptor binding assay, A2A ([3H]-CGS-21680); settings: membranes of HEK-293 cells expressing human A2A AdoR; read-out: hA2A IC50
T3 construct: purchased PerkinElmer RBHA2AM400UA
How it was run: as §1

T3 sequence (P29274 whole entry): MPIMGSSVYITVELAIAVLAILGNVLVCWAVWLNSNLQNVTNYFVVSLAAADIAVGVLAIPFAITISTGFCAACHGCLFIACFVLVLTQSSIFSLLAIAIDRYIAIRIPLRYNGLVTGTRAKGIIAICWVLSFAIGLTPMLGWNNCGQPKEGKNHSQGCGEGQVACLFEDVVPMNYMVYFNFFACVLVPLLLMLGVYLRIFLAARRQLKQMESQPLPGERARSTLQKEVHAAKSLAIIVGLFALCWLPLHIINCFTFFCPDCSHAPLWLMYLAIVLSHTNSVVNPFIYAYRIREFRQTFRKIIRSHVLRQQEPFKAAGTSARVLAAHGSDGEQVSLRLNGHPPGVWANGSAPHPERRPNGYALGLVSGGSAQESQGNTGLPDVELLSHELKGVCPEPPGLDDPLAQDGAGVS

SMILES	EC50 [1] [nM]	A2B/A2A Selectivity [3]	IC50 [4] [nM]	A1/A2A Selectivity [2]
COCCOc1ccc(N2CCN(CCn3c(C(N)=O)cc4c3nc(N)n3nc(-c5ccccn5)nc43)CC2)cc1	> 100	a (greater than 1000)	≤ 20	c (greater than 0 but less than or equal to 100)
COCCOc1ccc(N2CCN(CCn3c(C#N)cc4c3nc(N)n3nc(-c5ccccn5)nc43)CC2)cc1	> 100	a (greater than 1000)	≤ 20	b (greater than 100 but less than or equal to 1000)
CC#Cc1nc2c3cc(C#N)n(CCN4CCN(c5ccc(OCCOC)cc5)CC4)c3nc(N)n2n1	> 100	a (greater than 1000)	≤ 20	a (greater than 1000)
Cc1noc2cc(F)c(N3CCN(CCn4c(C#N)cc5c4nc(N)n4nc(-c6ccccn6)nc54)CC3)cc12	> 100	a (greater than 1000)	≤ 20	c (greater than 0 but less than or equal to 100)
Cc1noc2cc(F)c(N3CCN(CCn4c(C#N)c(Cl)c5c4nc(N)n4nc(-c6ccccn6)nc54)CC3)cc12	20 to 100	a (greater than 1000)	≤ 20	a (greater than 1000)
Cc1noc2cc(F)c(N3CCN(CCn4nc(Cl)c5c4nc(N)n4nc(-c6ccccn6)nc54)CC3)cc12	≤ 20	a (greater than 1000)	≤ 20	b (greater than 100 but less than or equal to 1000)

Now from value to molecule, other results behind:

EC50 [1] [nM]	A2B/A2A Selectivity [3]	IC50 [4] [nM]	SMILES	A1/A2A Selectivity [2]
20 to 100	a (greater than 1000)	≤ 20	NC(=O)c1cc2c(nc(N)n3nc(-c4ccccn4)nc23)n1CCN1CCN(c2ccc(OCC(=O)O)cc2)CC1	b (greater than 100 but less than or equal to 1000)
> 100	a (greater than 1000)	≤ 20	CC#Cc1nc2c3cc(C#N)n(CCN4CCN(c5cc(-c6ncco6)ccc5F)CC4)c3nc(N)n2n1	a (greater than 1000)
≤ 20	a (greater than 1000)	≤ 20	Cc1c(C(=O)O)n(CCN2CCN(c3cc(-c4ncco4)ccc3F)CC2)c2nc(N)n3nc(-c4ccccn4)nc3c12	a (greater than 1000)
> 100	a (greater than 1000)	≤ 20	N#Cc1cc2c(nc(N)n3nc(-c4ccccn4)nc23)n1CCN1CCN(c2cc(-c3ncco3)ccc2F)CC1	a (greater than 1000)
> 100	a (greater than 1000)	≤ 20	Cc1c(C(=O)NC2CC2)n(CCN2CCN(c3cc(-c4ncco4)ccc3F)CC2)c2nc(N)n3nc(-c4ccccn4)nc3c12	a (greater than 1000)
20 to 100	a (greater than 1000)	≤ 20	NC(=O)c1cc2c(nc(N)n3nc(-c4ccccn4)nc23)n1CCN1CCN(c2cc(-c3ncco3)ccc2F)CC1	b (greater than 100 but less than or equal to 1000)
20 to 100	a (greater than 1000)	≤ 20	Nc1nc2c(c(Cl)nn2CCN2CCN(c3cc(-c4ncco4)ccc3F)CC2)c2nc(-c3ccccn3)nn12	c (greater than 0 but less than or equal to 100)
> 100	a (greater than 1000)	≤ 20	Nc1nc2c(cc(C(=O)O)n2CCN2CCN(c3cc(-c4ncco4)ccc3F)CC2)c2nc(-c3ccccn3)nn12 [5-amino-7-(2-(4-(2-fluoro-5-(oxazol-2-yl)phenyl)piperazin-1-yl)ethyl)-2-(pyridin-2-yl)-7H-pyrrolo[3,2-e][1,2,4]triazolo[1,5-c]pyrimidine-8-carboxylic acid]	b (greater than 100 but less than or equal to 1000)
